Measured values from article PMC3660459 (PLoS ONE, 2013).
Values after ≈ are worked out from the molar mass of the structure shown. Values joined by “and” are separate entries in the source; they are usually repeats but may differ in a detail not shown here. Identical values can stand only once.

What was measured:
F. tularensis Schu S4 [1] = format: cell-based, Francisella tularensis subspecies tularensis Schu S4
F. tularensis Schu S4 [2] = test: microbe, parasite or virus in culture; format: cell-based, Francisella tularensis subspecies tularensis Schu S4; settings: Francisella tularensis, SCHUS4
[3] = target: NH3-dependent NAD^+ synthetase (nadE); settings: read-out: enzymatic IC50; cited from earlier work
B. anthracis Sterne = settings: cited from earlier work

Compound	Growth Inhibition (F. tularensis Schu S4 [1])	other results
CC(C)[C@H](N)C(=O)OCCOCn1cnc2c(O)nc(N)nc21 [Compound 34, [n]1(c2nc(nc(c2nc1)O)N)COCCOC( = O)[C@@H](N)C(C)C]	No	–
Cc1cc(CC(N)C(=O)O)on1 (centres unmarked) [Compound 6, NC(Cc1[o]nc(c1)C)C( = O)O]	No	–
OCC1OC(Nc2ccccc2)C(O)C(O)C1O (centres unmarked) [Compound 26, N(C2OC(C(C(C2O)O)O)CO)c1ccccc1]	No	–
CCOc1ccc(NC2OC(CO)C(O)C(O)C2O)cc1 (centres unmarked) [Compound 25, N(C2OC(C(C(C2O)O)O)CO)c1ccc(cc1)OCC]	No	–
Cc1ccc(OC2OC(CO)C(O)C(O)C2O)cc1C (centres unmarked) [Compound 23, O1C(C(C(C(C1CO)O)O)O)Oc2cc(c(cc2)C)C]	No	–
COc1cc(C=O)ccc1OCc1ccccc1COc1ccc(/C=C2/SC(=S)NC2=O)cc1OC [Compound 11, S1\C( = C\c2cc(c(cc2)OCc3c(cccc3)COc4c(cc(cc4)C = O)OC)OC)\C( = O)NC1 = S]	No	–
Nc1nc(NC2CC2)c2ncn([C@H]3C=C[C@@H](CO)C3)c2n1 [Compound 1, [n]2(c3nc(nc(c3nc2)NC4CC4)N)[C@@H]1C[C@@H](C = C1)CO]	No	–
NC(=O)c1ccc(-c2ccc(/C=C3/C(=O)NN(c4ccc(F)cc4)C3=O)o2)cc1 [Compound 10, Fc1ccc(cc1)N2NC( = O)\C( = C\c3[o]c(cc3)c4ccc(cc4)C( = O)N)\C2 = O]	No	–
O=C1/C(=C\c2ccc(-n3ccnc3)cc2)Oc2cc(O)ccc21 [Compound 5, [n]4(cncc4)c1ccc(cc1)\C = C2\Oc3c(ccc(c3)O)C\2 = O]	showed activity against the bacteria and Yes	MIC (F. tularensis Schu S4 [2]): > 125 µg/mL; Toxicity (RAW 264.7 cells): non-toxic
NC(=O)COc1cccnc1C(=O)O [Compound 32, NC( = O)COc1c(nccc1)C( = O)O]	No	–
O=[N+]([O-])c1ccc(NC2OC(CO)C(O)C(O)C2O)cc1 (centres unmarked) [Compound 22, [N+]( = O)([O-])c1ccc(cc1)NC2OC(C(C(C2O)O)O)CO]	No	–
C=C(O[C@@H]1C=C(C(=O)O)C=C[C@H]1O)C(=O)O [Compound 8, O([C@H]1[C@@H](C = CC( = C1)C( = O)O)O)C( = C)C( = O)O]	No	–
Cc1nn2c(=O)c3ccccc3[nH]c2c1C=O [Compound 13, [n]21nc(c(c2Nc3c(cccc3)C1 = O)C = O)C]	showed activity against the bacteria and Yes	MIC (F. tularensis Schu S4 [2]): > 125 µg/mL and ~400 µM; Toxicity (RAW 264.7 cells): non-toxic
CC1(C)S[C@@H]2[C@H](NC(=O)COc3ccccc3)C(=O)N2[C@H]1C(=O)O [Compound 37, S1[C@H]2N([C@H](C1(C)C)C( = O)[O-])C( = O)[C@H]2NC( = O)COc3ccccc3]	No	–
NC(Cc1ccc(Br)s1)C(=O)O (centres unmarked) [Compound 7, [s]1c(ccc1CC(N)C( = O)O)Br]	No	–
O=Cc1cnn2c(=O)c3ccccc3[nH]c12 [Compound 12, [n]21ncc(c2Nc3c(cccc3)C1 = O)C = O]	showed activity against the bacteria and Yes	MIC (F. tularensis Schu S4 [2]): 63 µg/mL (≈ 296 µM)
Nc1ccccc1CN1C(=O)c2ccccc2C1=O [Compound 15, N2(C( = O)c3c(cccc3)C2 = O)Cc1c(cccc1)N]	No	–
NC(=O)c1ncn([C@@H]2O[C@H](CO)C(O)C2O)c1N (some centres unmarked) [Compound 30, [n]2(cnc(c2N)C( = O)N)[C@@H]1O[C@@H](C(C1O)O)CO]	No	–
O[C@@H]1[C@@H](O)[C@H](Nc2ccc(Br)cc2)OC[C@H]1O [Compound 27, Brc1ccc(cc1)N[C@@H]2OC[C@H]([C@@H]([C@H]2O)O)O]	No	–
Cc1cc2ccccc2n1CC(=O)NCc1cccnc1N(C)C [Compound 18, [n]2(c3c(cc2C)cccc3)CC( = O)NCc1c(nccc1)N(C)C]	No	–

Compound	Growth Inhibition (F. tularensis Schu S4 [1])	other results
CC(c1cc2ccccc2s1)N(O)C(N)=O (centres unmarked) [Compound 3, [s]1c2c(cc1C(N(O)C( = O)N)C)cccc2]	No	–
NC(=O)c1ncn([C@@H]2O[C@H](CO)[C@@H](O)[C@H]2O)c1O [Compound 28, [n]2(cnc(c2O)C( = O)N)[C@@H]1O[C@@H]([C@H]([C@H]1O)O)CO]	No	–
O.O.O=C1NC(c2ccccc2)(c2ccccc2)C(=O)N1COP(=O)(O)O [Compound 2, [P]( = O)([O-])([O-])OCN1C( = O)NC(C1 = O)(c3ccccc3)c2ccccc2.O.O]	No	–
Nc1nc(N)c2nc(CNc3ccc(C(=O)O)cc3)cnc2n1 [Compound 20, N(Cc2nc3c(nc(nc3N)N)nc2)c1ccc(cc1)C( = O)[O-]]	No	–
Cc1ccc(-c2cc(C(F)(F)F)nn2-c2ccc(S(N)(=O)=O)cc2)cc1 [Compound 4, FC(F)(F)c1n[n](c(c1)c3ccc(cc3)C)c2ccc(cc2)[S]( = O)( = O)N]	No	–
CCOC(=O)c1cc2c(nc1C(=O)OCC)CCCC2=O [Compound 31, n1c2c(cc(c1C( = O)OCC)C( = O)OCC)C( = O)CCC2]	No	–
O=C(Cn1cc(/C=C/c2nc(O)nc(O)c2[N+](=O)[O-])c2ccccc21)Nc1ccc(F)cc1 [Compound 36, Fc1ccc(cc1)NC( = O)C[n]2c3c(c(c2)\C = C\c4nc(nc(c4[N+]( = O)[O-])O)O)cccc3]	No	–
COc1ccc(C2(O)C=C(C)NN2C(=O)c2ccccc2)cc1 (centres unmarked) [Compound 40, N2(NC( = CC2(O)c3ccc(cc3)OC)C)C( = O)c1ccccc1]	No	–
Cc1cc(Nc2ccccc2)n(C(=O)c2ccc(Cl)cc2)n1 [Compound 14, Clc1ccc(cc1)C( = O)[n]2nc(cc2Nc3ccccc3)C]	showed activity against the bacteria and Yes	MIC (F. tularensis Schu S4 [2]): 4 µg/mL (≈ 12.8 µM); Reduction of growth versus no-compound control (F. tularensis Schu S4 [1]): completely abolished bacterial growth
N#Cc1ccc(Oc2ccccc2O)c(F)c1 [Compound 16, Fc1c(ccc(c1)C#N)Oc2c(cccc2)O]	No	–
N2(NC( = CC2(O)c3cc(ccc3)OC)CC)C( = O)c1ccccc1 [Compound 38]	No	–
CC1=CC(O)(c2ccccc2)N(C(=O)c2ccncc2)N1 (centres unmarked) [Compound 39, N2(NC( = CC2(O)c3ccccc3)C)C( = O)c1ccncc1]	No	–
O=C1NN(c2cccc(Br)c2)C(=O)/C1=C\c1ccc(-c2ccccc2C(=O)O)o1 [Compound 9, Brc1cc(ccc1)N2NC( = O)\C( = C\c3[o]c(cc3)c4c(cccc4)C( = O)O)\C2 = O]	No	–
OCC1OC(Oc2ccc(Cl)cc2Cl)C(O)C(O)C1O (centres unmarked) [Compound 24, Clc1c(ccc(c1)Cl)OC2OC(C(C(C2O)O)O)CO]	showed activity against the bacteria and Yes	MIC (F. tularensis Schu S4 [2]): > 125 µg/mL and ~400 µM; Toxicity (RAW 264.7 cells): non-toxic
COc1ccc([C@@H]2CC(=O)c3c(O)cc(O)cc3O2)cc1O [Compound 33, O1[C@@H](CC( = O)c3c1cc(cc3O)O)c2cc(c(cc2)OC)O]	No	–
Nc1nc(O)c2nc(CNc3ccc(C(=O)O)cc3)cnc2n1 [Compound 19, N(Cc2nc3c(nc(nc3O)N)nc2)c1ccc(cc1)C( = O)O]	No	–
O=[N+]([O-])c1ccc(O)c(/C=N/c2cccc(O)c2)c1 [Compound 35, [N+]( = O)([O-])c1cc(c(cc1)O)\C = N\c2cc(ccc2)O]	showed activity against the bacteria and Yes	MIC (F. tularensis Schu S4 [2]): 32 µg/mL (≈ 124 µM); IC50 [3]: 2500 nM; MIC (B. anthracis Sterne): > 387 µM; Reduction of growth versus no-compound control (F. tularensis Schu S4 [1]): completely abolished bacterial growth
Cc1ccc(NC2OCC(O)C(O)C2O)cc1 (centres unmarked) [Compound 29, N(C2OCC(C(C2O)O)O)c1ccc(cc1)C]	No	–
NC(=O)c1nc[nH]c1C(N)=O [Compound 21, [nH]1cnc(c1C( = O)N)C( = O)N]	No	–
NC(=O)c1ccc(Oc2ccccc2O)c(F)c1 [Compound 17, Fc1c(ccc(c1)C( = O)N)Oc2c(cccc2)O]	No	–
